# Data taken from US9518038B2, “Condensation product of theanine derivative and carboxylic acid coumarin derivative, its intermediate, preparation method and use thereof” (SHANDONG YINGDONG YINGHAO BIOTECHNOLOGY, INC., priority 2012, dated 2016).
# Where two headings read alike, the source gives them in different places.
# Experiments:
# Assay type in all cases: cell-based
# [1] = system: human liver cancer cells HepG2; experiment: MTT growth inhibition, HepG2 cells; conditions: 72 h after treatment, read-out: Drug concentration (IC50) at which 50% cancer cells survived
# Excerpt: (§1) Cell lines and cell culture: human lung cancer cells A549 and H460, human breast cancer cells MCF-7 and MDA-MB-231, human gastric cancer cells BGC-823, human prostate cancer cells PC-3, human chronic leukemia cells K562, human lymphoma cells U937, human liver cancer cells SMMC7721 and HepG2, human colon cancer cells HT29, human pancreatic cancer cells PANC-1 and BxPC3, human cervical cancer Hela cell lines, human brain tumor cells Daoy, human neuroma cells D54 and human oral epidermoid cancer cells KBV200 line with strong drug resistance, mouse melanoma cells B16, and highly metastatic Lewis lung cancer cell lines were purchased from American Type Culture Collection of the U.S. These cells were cultured with DMEM and RPMI-1640 culture solutions separately.
# (§2) The procedure was as follows:
# (§3) (1) 0.25% trypsin was used to digest cancer cells in a logarithmic growth phase to prepare a single-cell suspension, the concentration of cells was adjusted to 5×10^4/mL, and the adjusted suspension was inoculated into a 96-well culture plate with 100 μl per well;
# (§4) (2) The culture plate was transferred into a 37° C. incubator with a saturated humidity and 5% of CO2 and cultured for 24 h; the compounds and the intermediates thereof obtained in embodiments 1-7 and the compound as represented by formula (IIIa) or the positive control anti-cancer drug with the concentration of 1-1000 μM/L were added to enable the final concentration to be 0.1-1500 μM/L. Control wells (only added with 200 μl of cell suspension) and drug-free blank control wells (containing the solvent of 0.01% DMSO) were set, each group included 8 wells, and the plate was placed into the 37° C. incubator with saturated humidity and 5% of CO2 for culturing;
# (§5) (3) The 96-well plate was taken out at 48 h and 72 h after dosing, the original culture medium was carefully removed by suction, 100 μl of serum-free DMEM culture medium and 10 μl of MTT (5 mg/mL) solution were added in each well. The plate was continuously cultured for another 4 h and then the culture was terminated;
# (§6) (4) The supernatant in the wells was carefully removed by suction, each well was added with 150 μl of DMSO and shaked at room temperature for 10-15 min to fully dissolve crystals.
# (§7) (5) Colorimetric analysis: the wavelength was selected as 570 nm, the light absorbance (A value) of each well was determined on the microplate reader and the results were recorded; the experiment was repeated for three times;
# (§8) (6) the experimental results were calculated according to the following formula: relative survival rate=(A value of each experimental group/A value of cell control group)×100%
# (§9) Calculation of median-effect concentration (IC50, namely the drug concentration at which the inhibition rate is 50%, also known as half inhibitory concentration):
# (§10) IC50 of the detected component was calculated by using a regression equation.
# [2] = system: nucleoprotein factor NF-κB (p65)-DNA binding activity; experiment: NF-κB (p65)-DNA binding activity (EMSA); conditions: EMSA, nuclear protein extracts, 48 h, read-out: Effective concentration for 50% inhibition of binding of nucleoprotein factor NF-kB (p65) and DNA
# Excerpt: The in-vitro experiment of the inhibitory effect against the NF-κB(p65)-DNA binding activity was applied with the chemiluminescent EMSA kit of Pierce Biotechnology Company of the U.S., the experimental method was strictly operated according to the description of the kit and the specific procedure were as follows:
# (1) Preparation of EMSA gel
# The cells treated by the drugs were extracted by the nucleoprotein extract solution (provided by Beyotime Biotechnology of Institute) to obtain the nucleoprotein extracts, and 10 μg/pipe of the nucleoprotein extracts were respectively used for sample reaction and electrophoresis detection and analysis shown in the following table.
# (2) Pre-electrophoresis: the gel was fixed in an electrophoresis tank, which was filled with a 0.5×TBE electrophoresis buffer solution, and electrophoresed under 10V/cm for 90 min. The probe binding reaction was as follows:
# The components were added in sequence into the EP pipe according to the above table, uniformly mixed and stood at room temperature for 15 min to eliminate possible non-specific binding of probe and protein. 1 μl of biotin-labeled probe NF-κB was respectively added and stood at room temperature for 20 min.
# (4) Film transfer: the process of transferring the nucleoprotein factors and the binding probe on the EMSA gel to the nylon film was electrically transferred under 380 mA in ice bath for 40 min.
# (5) Ultraviolet cross-linking: the nylon film was placed under a 254 nm ultraviolet lamp and irradiated for 15 min.
# (6) Detection of the biotin-labeled probe by chemiluminescence: the cross-linked nylon film was blocked with the blocking solution, a treated film was subjected to X-ray exposure, developing, and fixation according to the requirements of the kit, and the results were analyzed.
# [3] = system: p53; experiment: Western Blotting, increase of p53 level; conditions: liver cancer cells, Lewis lung cancer cells and other cancer cell lines and tumor tissue protein lysates, 48 h treatment, read-out: Effective concentration to increase p53 by 50%
# Excerpt: (§11) Antibodies: primary antibodies of VEGFR, EGFR, c-Met, K-Ras, H-Ras, Akt, NF-κB, Cyclin D1, ER-alpha, Dvl-1, Dvl-2, Dvl-3, MMP-9, MMP2, β-catenin, Bcl-2, Bax, p53, p21, E-cadherin and Caspase3 protein, purchased from American Cell Signaling Technology Company and Santa Cruz Technology Company; and H3 acetylation, H4 acetylation and HDAC (HDAC3, HDAC4 and the like) Antibody Sample Kits, purchased from Cell Signaling Technology Company of the U.S.
# (§12) (3) polyacrylamide gel electrophoresis (SDS-PAGE): an equal amount of protein lysate sample was used to separate protein, film transfer, and blocking, treated with appropriate primary antibodies and secondary antibodies in sequence, and the film was washed, then the color was developed with ECL kit, and a blot protein band was detected by exposure of an X-ray film; and a Gel-Pro Analyzer was used for quantitative analysis of gray degree, optical density value of the control group and the drug treatment group in various concentration were respectively compared with that of internal reference, the obtained ratios were respectively compared with the control group, and the protein expression level was semi-quantified.
# [4] = system: human lung cancer cells A549; experiment: MTT growth inhibition, A549 cells; conditions: 72 h after treatment, read-out: Drug concentration (IC50) at which 50% cancer cells survived
# Excerpt: as §1, §2, §3, §4, §5, §6, §7, §8, §9, §10
# [5] = system: Caspase3; experiment: Western Blotting, increase of Caspase3 level; conditions: liver cancer cells, Lewis lung cancer cells and other cancer cell lines and tumor tissue protein lysates, 48 h treatment, read-out: Effective concentration to increase Caspase-3 by 50%
# Excerpt: as §11, §12
# [6] = system: human breast cancer cells MDA-MB-231; experiment: MTT growth inhibition, MDA-MB-231 cells; conditions: 72 h after treatment, read-out: Drug concentration (IC50) at which 50% cancer cells survived
# Excerpt: as §1, §2, §3, §4, §5, §6, §7, §8, §9, §10
# [7] = system: p21; experiment: Western Blotting, increase of p21 level; conditions: liver cancer cells, Lewis lung cancer cells and other cancer cell lines and tumor tissue protein lysates, 48 h treatment, read-out: Effective concentration to increase p21 by 50%
# Excerpt: as §11, §12
# [8] = system: human liver cancer cells SMMC7721; experiment: MTT growth inhibition, SMMC7721 cells; conditions: SMMC-7721, S-7721 (SMMC7721), 72 h after treatment, read-out: Drug concentration (IC50) at which 50% cancer cells survived
# Excerpt: as §1, §2, §3, §4, §5, §6, §7, §8, §9, §10
# [9] = system: E-cadherin; experiment: Western Blotting, increase of E-cadherin level; conditions: liver cancer cells, Lewis lung cancer cells and other cancer cell lines and tumor tissue protein lysates, 48 h treatment, read-out: Effective concentration to increase E-cadherin by 50%
# Excerpt: as §11, §12
smiles,measurement,setting,value
"CC[C@]1(O)C[C@H]2CN(CCc3c([nH]c4ccccc34)[C@@](C(=O)OC)(c3cc4c(cc3OC)N(C=O)[C@H]3[C@@](O)(C(=O)OC)[C@H](OC(C)=O)[C@]5(CC)C=CCN6CC[C@]43[C@@H]65)C2)C1 [Vincristine, reference compound]",IC50,[1],37 µM
same,IC50,[2]; A549 cells,> 70 µM
same,IC50,[2]; Hela cells,> 70 µM
same,IC50,[2]; MCF7 cells,> 70 µM
same,IC50,[2]; MDA-MB231 cells,> 70 µM
same,IC50,[2]; PANC-1 cells,> 70 µM
same,IC50,[2]; SMMC7721 cells,> 70 µM
same,EC50,[3],> 70 µM
same,IC50,[4],220 µM
same,EC50,[5],> 70 µM
same,IC50,[6],130 µM
same,EC50,[7],> 70 µM
same,IC50,[8],78 ± 30 µM
same,EC50,[9],> 70 µM
